According to ChEMBL document CHEMBL1201862, “PubChem BioAssay data set” (2004):
Values joined by “and” are separate entries in the source; they are usually repeats but may differ in a detail not shown here. Equal values may be shown once. Active and inactive are the calls of the source.

Key:
Cytochrome P450 1A2 = molecular target: T1, Cytochrome P450 1A2 (Homo sapiens, UniProt P05177);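 also: PubChem cytochrome P450 panel assay, CYP1A2 panel member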
T1 sequence (P05177 whole entry): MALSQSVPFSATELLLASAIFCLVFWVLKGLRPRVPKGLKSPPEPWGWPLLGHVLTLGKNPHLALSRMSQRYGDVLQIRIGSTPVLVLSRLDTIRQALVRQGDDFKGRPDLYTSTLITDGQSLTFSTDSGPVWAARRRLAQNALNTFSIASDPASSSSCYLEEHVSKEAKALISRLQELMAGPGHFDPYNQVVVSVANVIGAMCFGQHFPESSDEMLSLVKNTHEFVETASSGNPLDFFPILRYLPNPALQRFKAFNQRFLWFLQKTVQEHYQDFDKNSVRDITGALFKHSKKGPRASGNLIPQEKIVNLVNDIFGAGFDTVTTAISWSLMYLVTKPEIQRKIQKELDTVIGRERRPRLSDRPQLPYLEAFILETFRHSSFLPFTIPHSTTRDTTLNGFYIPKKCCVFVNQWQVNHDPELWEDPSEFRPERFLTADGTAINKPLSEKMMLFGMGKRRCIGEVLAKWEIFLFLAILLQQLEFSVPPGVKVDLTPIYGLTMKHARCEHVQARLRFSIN

Protein RecA = molecular target: T2, Protein RecA (Mycobacterium tuberculosis, UniProt P9WHJ3); assay: Fluorescence Cell-Free Homogeneous Dose Retest to Identify Inhibitors of RecA-Intein Splicing Activity. [Related pubchem assays (depositor defined):AID2097, AID2223, AID489010, AID492950]; assay type: functional
T2 sequence (P9WHJ3 whole entry): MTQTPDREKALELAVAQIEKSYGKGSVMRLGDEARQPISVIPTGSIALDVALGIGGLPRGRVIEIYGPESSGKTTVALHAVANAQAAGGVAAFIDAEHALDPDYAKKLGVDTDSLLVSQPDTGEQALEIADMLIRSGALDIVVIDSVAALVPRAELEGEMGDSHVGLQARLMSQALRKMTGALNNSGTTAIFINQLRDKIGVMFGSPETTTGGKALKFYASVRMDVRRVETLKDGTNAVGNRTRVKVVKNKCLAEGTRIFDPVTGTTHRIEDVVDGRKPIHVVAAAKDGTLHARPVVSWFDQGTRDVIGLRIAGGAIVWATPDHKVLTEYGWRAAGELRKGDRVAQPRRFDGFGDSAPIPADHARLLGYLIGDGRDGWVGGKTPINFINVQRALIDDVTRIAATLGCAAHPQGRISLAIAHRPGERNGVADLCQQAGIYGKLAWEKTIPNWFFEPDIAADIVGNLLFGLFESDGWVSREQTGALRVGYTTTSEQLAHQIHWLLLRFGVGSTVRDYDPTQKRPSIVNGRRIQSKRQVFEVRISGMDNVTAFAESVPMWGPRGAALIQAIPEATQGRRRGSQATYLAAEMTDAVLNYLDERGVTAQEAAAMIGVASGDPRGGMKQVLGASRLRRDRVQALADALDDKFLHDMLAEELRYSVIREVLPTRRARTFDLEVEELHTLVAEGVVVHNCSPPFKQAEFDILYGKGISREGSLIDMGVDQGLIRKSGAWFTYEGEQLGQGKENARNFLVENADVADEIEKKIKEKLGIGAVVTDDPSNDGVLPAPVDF

[1] = molecular target: T3, Replicative DNA helicase DnaB (Mycobacterium tuberculosis, UniProt P9WMR3); assay: DnaB intein splicing inhibitors, dose response, biochemical, cell-free fluorescence (AID 449749); assay type: functional
T3 sequence (P9WMR3 whole entry): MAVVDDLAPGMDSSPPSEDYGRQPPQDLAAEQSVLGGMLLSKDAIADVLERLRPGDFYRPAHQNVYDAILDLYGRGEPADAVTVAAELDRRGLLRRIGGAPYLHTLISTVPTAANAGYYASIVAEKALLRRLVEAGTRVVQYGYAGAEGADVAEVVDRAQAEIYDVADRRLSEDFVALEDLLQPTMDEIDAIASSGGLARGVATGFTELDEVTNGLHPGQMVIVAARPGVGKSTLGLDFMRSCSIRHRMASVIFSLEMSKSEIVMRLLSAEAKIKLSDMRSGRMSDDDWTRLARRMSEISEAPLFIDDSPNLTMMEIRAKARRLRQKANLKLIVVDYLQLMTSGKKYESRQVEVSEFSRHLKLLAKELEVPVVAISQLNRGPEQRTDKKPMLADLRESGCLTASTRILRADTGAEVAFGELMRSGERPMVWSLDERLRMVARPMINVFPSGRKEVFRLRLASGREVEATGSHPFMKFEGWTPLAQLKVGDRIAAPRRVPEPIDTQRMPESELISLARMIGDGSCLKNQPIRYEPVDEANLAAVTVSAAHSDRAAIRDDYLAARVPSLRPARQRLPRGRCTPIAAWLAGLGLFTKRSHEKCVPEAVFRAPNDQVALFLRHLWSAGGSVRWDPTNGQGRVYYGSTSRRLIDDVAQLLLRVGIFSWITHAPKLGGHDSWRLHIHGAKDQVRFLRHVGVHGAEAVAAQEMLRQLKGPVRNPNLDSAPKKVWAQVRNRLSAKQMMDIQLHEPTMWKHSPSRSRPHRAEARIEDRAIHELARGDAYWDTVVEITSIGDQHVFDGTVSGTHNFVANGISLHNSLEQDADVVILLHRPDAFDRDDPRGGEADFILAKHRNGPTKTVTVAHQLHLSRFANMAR

Cytochrome P450 2C19 = Cytochrome P450 2C19 (Homo sapiens, UniProt P33261); assay: Cytochrome panel assay with activity outcomes. Panel member name: p450-cyp2c19 Compounds with AC50 equal or less than 10 uM are considered active; assay type: functional
Chain of Cytochrome P450 2C19 (P33261 whole entry): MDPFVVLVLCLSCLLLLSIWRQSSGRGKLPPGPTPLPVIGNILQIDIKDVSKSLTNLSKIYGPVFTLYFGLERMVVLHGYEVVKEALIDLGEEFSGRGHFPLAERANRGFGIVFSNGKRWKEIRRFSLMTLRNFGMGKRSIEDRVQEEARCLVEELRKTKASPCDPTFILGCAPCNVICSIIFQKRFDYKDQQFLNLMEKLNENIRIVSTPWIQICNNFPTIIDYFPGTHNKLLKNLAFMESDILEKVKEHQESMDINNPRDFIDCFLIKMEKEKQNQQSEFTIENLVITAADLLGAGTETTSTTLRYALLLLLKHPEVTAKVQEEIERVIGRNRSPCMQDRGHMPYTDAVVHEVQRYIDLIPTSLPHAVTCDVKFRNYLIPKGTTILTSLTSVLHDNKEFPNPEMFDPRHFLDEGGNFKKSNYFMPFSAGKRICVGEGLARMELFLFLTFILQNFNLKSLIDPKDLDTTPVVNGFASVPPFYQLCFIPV

Cytochrome P450 3A4 = Cytochrome P450 3A4 (Homo sapiens, UniProt P08684);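 also: CYP3A4 tested as one member of a cytochrome P450 panel screen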
Chain of Cytochrome P450 3A4 (P08684 whole entry): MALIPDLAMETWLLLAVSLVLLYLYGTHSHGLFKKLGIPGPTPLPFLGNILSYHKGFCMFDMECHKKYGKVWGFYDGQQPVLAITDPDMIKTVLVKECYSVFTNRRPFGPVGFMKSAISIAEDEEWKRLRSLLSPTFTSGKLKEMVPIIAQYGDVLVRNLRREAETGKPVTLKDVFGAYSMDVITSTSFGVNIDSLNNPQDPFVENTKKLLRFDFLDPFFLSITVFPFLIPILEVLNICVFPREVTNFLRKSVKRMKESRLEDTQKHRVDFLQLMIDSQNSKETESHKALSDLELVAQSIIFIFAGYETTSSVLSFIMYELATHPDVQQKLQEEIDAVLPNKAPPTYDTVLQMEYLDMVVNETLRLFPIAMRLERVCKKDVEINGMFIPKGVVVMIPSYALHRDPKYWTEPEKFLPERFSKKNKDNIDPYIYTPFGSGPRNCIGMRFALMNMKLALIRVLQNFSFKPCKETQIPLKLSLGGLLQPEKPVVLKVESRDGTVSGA

[2] = Luminescence Cell-Based Dose Retest to Confirm Inhibitors of Cancer Stem Cells. [Related pubchem assays (depositor defined):AID2717, AID2721]; assay type: functional; conditions: Homo sapiens
[3] = system: Streptococcus sp. 'group A'; assay: growth inhibition of control SK(-) GAS strain, dose response, counter-screen for streptokinase expression inhibitor project, luminescence, kanamycin, BacTiterGlo, confirmation (AID 1900); assay type: functional, organism-based
Streptococcus = assay: Group A Streptococcus viability loss, dose response, counter-screen for streptokinase expression inhibitor project, luminescence, BacTiterGlo (AID 1915); assay type: functional, organism-based;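 also: potency for reduction of bacterial viability or growth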

C[C@@H](C(=O)Nc1ccc2ccccc2c1)[C@@H]1C[C@@]1(C)[C@@H](NC(=O)c1cnccn1)c1ccccc1
AC50 (Cytochrome P450 1A2): 12.6 µM (inconclusive)

CCOc1ccc(-c2[nH]nc3c2C(c2ccc(O)cc2)C(C#N)=C(N)O3)cc1 (centres undefined)
EC50 (Protein RecA): 1.75 µM (active) | AC50 [1]: 4.62 µM (active)

Nc1ccccc1S(=O)(=O)NC1=NCCCCC1
EC50 (Protein RecA): > 380 µM (inactive) | AC50 [1]: > 380 µM (inactive)

COc1ccc(Oc2ncc3ncc(=O)n(C)c3n2)cc1
AC50 (Cytochrome P450 2C19; read-out: AC50): 31.6 µM (inconclusive) | AC50 (Cytochrome P450 3A4): 25.1 µM (inconclusive)

COc1ccc(-n2c(=O)c(C)nc3cnc(N4CCOCC4)nc32)cc1
AC50 (Cytochrome P450 3A4): 31.6 µM (inconclusive)

OC[C@@H]1O[C@@H](n2cnc3c(NC4CCCCC4)ncnc32)[C@@H](O)[C@H]1O
AC50 (Cytochrome P450 2C19; read-out: AC50): 0.0251 µM (inconclusive)

COc1cccc(Nc2ncc3nc(-c4ccc(Cl)cc4)c(=O)n(CCC#N)c3n2)c1
AC50 (Cytochrome P450 3A4): 2 µM (inconclusive) | AC50 (Cytochrome P450 1A2): 5.01 µM (inconclusive)

CC1=NNC(=O)C1Oc1ccccc1 (centres undefined)
EC50 (Protein RecA): 0.57 µM (active) | AC50 [1]: 0.737 µM (active)

O=c1cc(N2CCC(Cc3ccccc3)CC2)[nH]c(=O)n1C1CCCCC1
AC50 (Cytochrome P450 3A4): 3.55 µM (inconclusive)

Cc1noc(C)c1C(=O)N1CCC2(CCCN(c3ccccn3)C2)CC1
AC50 (Cytochrome P450 3A4): 20 µM (inconclusive)

Cc1c(C)n(CCc2ccccc2)c2ncnc(NCCCN(C)C)c12
AC50 [2]: 3.51 µM (active)

O=C1[C@H]2O[C@@H]2[C@@H](O)[C@H]2[C@H]1CCn1c(=O)n(Cc3cc4c(cc3Cl)OCO4)c(=O)n12
AC50 (Cytochrome P450 3A4): 3.16 µM (inconclusive)

N#Cc1ncc(-c2ccc3c(c2)OCCOCCOCCOCCO3)nc1C#N
EC50 (Protein RecA): 8.97 µM (active)

Cc1ccc(C(=O)CSC2=C(C#N)C(c3ccco3)C3=C(O)CC(C)(C)CC3=N2)cc1 (centres undefined)
AC50 [2]: 2.49 µM (active)

COc1ccc(CC(=O)O/N=C(\N)Cc2ccc(OC)cc2)cc1
AC50 (Cytochrome P450 2C19; read-out: AC50): 14.1 µM (inconclusive)

O=c1c(-c2ccc(Cl)cc2)nc2cncnc2n1Cc1ccccc1
AC50 (Cytochrome P450 2C19; read-out: AC50): 25.1 µM (inconclusive) | AC50 (Cytochrome P450 3A4): 10 µM (inconclusive)

COCCNc1nc(-c2cccc(NS(C)(=O)=O)c2)nc2ccccc12
AC50 (Cytochrome P450 2C19; read-out: AC50): 39.8 µM (inconclusive)

O=C(C1CC(=O)N(C2CCCC2)C1)N1CCC2(CC1)OCCO2 (centres undefined)
AC50 (Cytochrome P450 2C19; read-out: AC50): 39.8 µM (inconclusive)

COC(=O)C/C=C\[C@@H](C)[C@@H](/C=N\O[C@@H](C)c1cn([C@H]2COC[C@H]2O)nn1)OC
AC50 (Cytochrome P450 2C19): inconclusive

SC1=NCCC12C(S)=Nc1ccccc12 (centres undefined)
EC50 (Protein RecA): > 380 µM (inactive) | AC50 [1]: > 380 µM (inactive)

C/C(CC(=O)Nc1ccccn1)=N\NC(=O)c1ccc(C)cc1
EC50 (Protein RecA): 8.84 µM (active) | AC50 [1]: 20.4 µM (active)

CCCc1nc2ccccc2c(=O)n1/N=C/c1c(C)nn(-c2ccc(C)cc2)c1O
EC50 [3]: 2.87 µM (active) | EC50 (Streptococcus): 9.16 µM (active)

O=C(Cc1cc(O)n[nH]1)N/N=C/c1cccc(Cl)c1Cl
EC50 (Protein RecA): 1.51 µM (active) and 1.71 µM (active) | AC50 [1]: 4.36 µM (active) and 2.36 µM (active)

Cn1c(-c2ccc3c(c2)OCO3)cc(=O)c2ccccc21 [GRAVEOLINE]
AC50 (Cytochrome P450 2C19; read-out: AC50): 2 µM (inconclusive)
